Results on two molecules are retold here after patent publication US20220274947A1, “NOVEL HETEROARYL-TRIAZOLE COMPOUNDS AS PESTICIDES” (Bayer Aktiengesellschaft, priority 2019, published 2022).

Holding throughout (assay type): in vivo
Experiment [1] concerns Anopheles funestus strain FUMOZ-R. The experiment in a line: Anopheles funestus test (ANPHFU surface treatment & contact assay). To be noted: surface concentration 20 mg/m^2, glazed tile, exposure 30 minutes, 24 hours after contact, read-out: efficacy (mortality). The procedure:
Anopheles funestus Test (ANPHFU Surface Treatment & Contact Assay) Solvent: Aceton+2000 ppm rapeseed oil methyl ester (RME)
In order to produce a sufficient, active ingredient containing solution it is necessary to solve the test compound in the solvent-mix (acetone at 2 mg/ml/RME 2000 ppm). This solution is pipetted onto a glazed tile and after evaporation of the acetone, adult mosquitoes of the species Anopheles funestus strain FUMOZ-R (Hunt et al., Med. Vet. Entomol. 2005 September; 19(3): 271-275) are placed onto the dried surface. The exposure time is 30 minutes. Mortality in percent (%) is determined 24 hours after contact of the insects to the treated surface. 100% mortality means that all tested insects are dead, whereas 0% means that no insect died.

For experiment [2], the system named is Ctenocephalides felis. The experiment in a line: Ctenocephalides felis in-vitro contact test, adult cat flea (CTECFE Cont). To be noted: application rate 5 μg/cm^2 (=500 g/ha), adult cat fleas, after 48 hours, read-out: activity (efficacy: 100% means all fleas are dead or moribund). The procedure, abridged:
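Acetone solutions coated on glass tube inner walls (900 ppm giving 5 μg/cm^2), then 5-10 adult fleas added and held 48 h at room temperature. Fleas unable to escape a 45-50° C. heating plate within 5 min scored dead or moribund; efficacy = % dead/moribund.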

The subject of experiment [3] is Ctenocephalides felis. The experiment in a line: Ctenocephalides felis oral test (CTECFE Oral). Particulars: 48 h, read-out: activity (mortality). In a few lines: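 About 20 unfed adult cat fleas fed through parafilm on cattle blood containing compound (DMSO concentrate diluted in blood to the desired concentration). Blood held at 37 °C, fleas at room temperature. Mortality (%) scored after 2 days.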

Experiment [4] deals with Myzus persicae. The experiment in a line: Myzus persicae spray test. Particulars: in Brassica rapa, foliar, 120 h, read-out: activity (mortality), application rate 100 g/ha, spray, Chinese cabbage leaf disks, after 5 days. In a few lines: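 Compound in acetone/DMF solvent diluted in water with 1000 ppm alkylarylpolyglycol ether emulsifier, sprayed onto Chinese cabbage leaf disks infested with all instars of Myzus persicae. Mortality (%) scored after 5 days.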

The subject of experiment [5] is Aedes aegypti strain MONHEIM. The experiment in a line: Aedes aegypti test (AEDSAE surface treatment & contact assay). To be noted: exposure 30 minutes, 24 hours after contact, read-out: efficacy (mortality); for mortality at 20 mg/m2: surface concentration 20 mg/m^2, glazed tile. In a few lines:
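Compound dissolved in acetone (2 mg/ml) with 2000 ppm rapeseed oil methyl ester, pipetted onto glazed tile and dried. Adult mosquitoes exposed on the surface for 30 min; percent mortality scored 24 h after contact.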

For experiment [6], the system named is Rhipicephalus microplus. The experiment in a line: Rhipicephalus (Boophilus) microplus in-vitro contact test, larval cattle tick, strain Parkhurst (BOOPMI Cont). Particulars: application rate 5 μg/cm^2 (=500 g/ha), tick larvae, after 48 hours, read-out: activity (efficacy: 100% means all larvae are dead or moribund). In a few lines:
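Acetone solutions dried onto glass tube walls (900 ppm giving 5 μg/cm^2); 20-50 pyrethroid-resistant Parkhurst larvae added per tube and held 48 h at 27° C., 85% relative humidity. Efficacy scored by negative geotaxis as % dead or moribund larvae.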

The test system of experiment [7] is Blattella germanica strain PAULINIA
The experiment in a line: Blattella germanica test (BLTTGE surface treatment & contact assay). Particulars: surface concentration 20 mg/m^2, glazed tile, exposure 30 minutes, 24 hours after contact, read-out: efficacy (mortality). As for the experimental part: Blattella germanica Test (BLTTGE Surface Treatment & Contact Assay) Solvent: Aceton+2000 ppm rapeseed oil methyl ester (RME)
In order to produce a sufficient, active ingredient containing solution it is necessary to solve the test compound in the solvent-mix (acetone at 2 mg/ml/RME 2000 ppm). This solution is pipetted onto a glazed tile and after evaporation of the acetone, adult animals of the species Blattella germanica strain […] are placed onto the dried surface. The exposure time is 30 minutes. Mortality in percent (%) is determined 24 hours after contact of the insects to the treated surface. 100% mortality means that all tested insects are dead, whereas 0% means that no insect died.

The subject of experiment [8] is Myzus persicae. The experiment in a line: Myzus persicae oral test. To be noted: 120 h, read-out: activity (mortality). The procedure, abridged:
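Percent mortality was recorded at day 5, where 0% means no aphids killed. Compound prepared from an acetone concentrate diluted in water and combined with IPL41 medium containing sugar was offered to mixed-stage green peach aphids, which sucked it through a parafilm seal.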

In experiment [9] the test system is Tetranychus urticae. The experiment in a line: Tetranychus urticae spray test, OP-resistant. Particulars: foliar, 144 h, application rate 500 g/ha, French bean leaf disks, after 6 days. The procedure: Tetranychus urticae—Spray Test OP-Resistant Solvent: 78.0 parts by weight acetone • 1.5 parts by weight dimethylformamide Emulsifier: alkylarylpolyglycol ether
To produce a suitable preparation of active compound, 1 part by weight of active compound is mixed with the stated amount of solvents and is diluted with water, containing an emulsifier concentration of 1000 ppm, to the desired concentration. Further test concentrations are prepared by dilution with emulsifier containing water.
French bean (Phaseolus vulgaris) leaf disks infected with all instars of the two spotted spidermite (Tetranychus urticae), are sprayed with a preparation of the active ingredient of the desired concentration.
After 6 days mortality in % is determined. 100% means all spider mites have been killed and 0% means none of the spider mites have been killed.

The test system of experiment [10] is Rhipicephalus microplus. The experiment in a line: Rhipicephalus (Boophilus) microplus injection test (BOOPMI Inj). Particulars: 168 h, injection into adult engorged female ticks, egg deposition after 7 days, read-out: activity (efficacy: 100% means all eggs are infertile); for pest or weed control at 0.004 mg: application rate 4 μg/tick. In a few lines:
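Five engorged adult female R. microplus ticks injected into the abdomen with 1 μL of compound diluted in DMSO, then kept in a climate chamber. Fertile egg deposition checked after 7 days; eggs without visible fertility held until hatching at about 42 days. Efficacy: 100% = all eggs infertile, 0% = all fertile.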

Experiment [11] has as its system Rhipicephalus sanguineus. The experiment in a line: Rhipicephalus sanguineus in-vitro contact test, adult brown dog ticks (RHIPSA Cont). Particulars: 48 h, after 48 hours, read-out: activity (efficacy: 100% means all ticks are dead or moribund). The procedure, abridged: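 Compound in acetone (9 mg/mL stock, diluted to test concentration) is coated onto inner walls of glass tubes by rotation for 2 h at 30 rpm. Efficacy is read after 48 h: ticks are tapped down and held on a 45-50° C plate for at most 5 min, and immotile or uncoordinated ones that fail to climb away count as dead or moribund.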

In experiment [12] the test system is Meloidogyne incognita. The experiment in a line: Meloidogyne incognita test. To be noted: application rate 20 ppm, salad seedlings, after 14 days. The procedure:
Meloidogyne incognita—Test Solvent: 125.0 parts by weight of acetone
To produce a suitable preparation of active compound, 1 part by weight of active compound is mixed with the stated amount of solvent, and the concentrate is diluted with water to the desired concentration.
Vessels are filled with sand, a solution of the active ingredient, a suspension containing eggs and larvae of the southern root-knot nematode (Meloidogyne incognita) and salad seeds. The salad seeds germinate and the seedlings grow. Galls develop in the roots.
After 14 days the nematicidal activity is determined based on the percentage of gall formation. 100% means no galls were found and 0% means the number of galls found on the roots of the treated plants was equal to that in untreated control plants.

For experiment [13], the system named is Spodoptera frugiperda. The experiment in a line: Spodoptera frugiperda spray test. To be noted: in Zea mays, 168 h, read-out: activity (mortality). In a few lines: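 Maize leaf sections were sprayed with compound formulated in acetone/DMF and diluted in water containing 1000 ppm emulsifier. Dried leaves were infested with fall armyworm larvae, and percent mortality was scored after 7 days.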

For experiment [14], the system named is Diabrotica balteata. The experiment in a line: Diabrotica balteata spray test. To be noted: 168 h, application rate 100 g/ha (=32 μg/well), wheat seeds, larvae, after 7 days, read-out: activity (efficacy: 100% means all seedlings have grown up like in the untreated, uninfected control). The procedure, abridged:
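Wheat seedlings, germinated 1 day on agar, were sprayed with compound in acetone/DMF diluted in water containing emulsifier, then infested with 10-20 Diabrotica balteata larvae. After 7 days efficacy in % was scored: 100% means seedlings grew like the untreated, uninfected control; 0% means none grew.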

As for `CC(=O)N(C)c1ccc(-n2ncnc2[C@H](C)NC(=O)c2cc(Cl)cc(C(F)(F)F)c2)nc1` [II-80], the mortality at 20 mg/m2 in [1], in experiment [5] and in [7] was 80 to 100% throughout. The pest or weed control at 5 µg/cm2 in [2] and in experiment [6] was 100% throughout. For the same molecule, in experiment [3], the mortality at 100 ppm was found to be 100%. The mortality at 100 g/ha in [4] amounted to 90%. In addition, the mortality at 4 mg/m2 in [5] (surface concentration 4 mg/m^2, glazed tile) was 80 to 100%. The mortality at 0.8 ppm in experiment [8] worked out at 100%. In experiment [9], this molecule registered a mortality at 500 g/ha of 90%. In addition, in experiment [10], the pest or weed control at 0.004 mg worked out at 80%.

As to `CC(C)c1nc([C@H](C)NC(=O)c2cc(Cl)cc(Br)c2)n(-c2ccc(C#N)cn2)n1` [I-19], the pest or weed control at 1 µg/cm2, 100 g/ha in [11] (application rate 1 μg/cm^2 (=100 g/ha)) is 100%. Further, in experiment [11] (application rate 5 μg/cm^2 (=500 g/ha)), the pest or weed control at 5 µg/cm2, 500 g/ha was 100%. Moreover, the mortality at 100 ppm in experiment [3] came out at 100%. In experiment [5], the mortality at 20 mg/m2 lay in the range of 80 to 100%. Moreover, the pest or weed control at 5 µg/cm2 in experiment [6] is 100%. Besides, in [12], the “nematicidal activity (100% means no galls were found)” value turned out to be 90%. Moreover, in experiment [13], the mortality at 100 g/ha came to 100%. In addition, in experiment [14], the pest or weed control at 32 µg/disc, 100 g/ha is 100%. In experiment [10], the pest or weed control at 0.004 mg was found to be 100%. Besides, the pest or weed control at 0.02 mg in [10] (application rate 20 μg/tick) was 100%.
